# Results from BindingDB's records for doi:10.7270/Q2251GJ9 (The Scripps Research Institute Molecular Screening Center, 2007).
# Target: Sphingosine 1-phosphate receptor 1 (Homo sapiens, UniProt P21453)
# Assay: S1P1 receptor agonists, dose response, cell-based, agonist mode, 60K MLSMR set (AID 468)
# Settings: not given
# Chain of Sphingosine 1-phosphate receptor 1 (P21453 whole entry): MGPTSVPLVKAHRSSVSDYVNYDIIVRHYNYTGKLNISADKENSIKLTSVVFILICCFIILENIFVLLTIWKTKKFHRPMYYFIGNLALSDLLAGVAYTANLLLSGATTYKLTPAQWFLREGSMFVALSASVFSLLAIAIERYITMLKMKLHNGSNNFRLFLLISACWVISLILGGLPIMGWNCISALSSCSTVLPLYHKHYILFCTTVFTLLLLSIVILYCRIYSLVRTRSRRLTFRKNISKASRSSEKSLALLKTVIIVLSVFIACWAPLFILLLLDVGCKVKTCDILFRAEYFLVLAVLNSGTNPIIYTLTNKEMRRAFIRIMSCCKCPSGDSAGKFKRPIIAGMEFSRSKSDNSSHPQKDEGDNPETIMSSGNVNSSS
row,SMILES,EC50 [µM]
1,Cc1ccc(S(=O)(=O)Nc2ccc3ncccc3c2)cc1 [4-methyl-N-(6-quinolinyl)benzenesulfonamide],7.8
2,"Cc1sc2ncnc(Sc3nnnn3-c3ccccc3)c2c1C [5,6-dimethyl-4-(1-phenyltetrazol-5-yl)sulfanylthieno[2,3-d]pyrimidine]",> 95
3,"c1ccc(C(Cc2nc(-c3cccnc3)no2)c2ccccc2)cc1 [5-(2,2-diphenylethyl)-3-(3-pyridinyl)-1,2,4-oxadiazole]",2.82
4,"COc1ccc(-c2noc(-c3cccc(OC)c3OC)n2)cc1OC [5-(2,3-dimethoxyphenyl)-3-(3,4-dimethoxyphenyl)-1,2,4-oxadiazole]",1.45
5,"COc1ccc(-c2noc(-c3ccccc3F)n2)cc1 [5-(2-fluorophenyl)-3-(4-methoxyphenyl)-1,2,4-oxadiazole]",7.38
6,"O=C(Nc1ccc(O)cc1)c1cc2n(n1)C(C(F)(F)F)CC(c1ccco1)N2 (configuration not stated) [5-(2-furanyl)-N-(4-hydroxyphenyl)-7-(trifluoromethyl)-1,5,6,7-tetrahydropyrazolo[1,5-a]pyrimidine-2-carboxamide]",3.63
7,"COc1ccccc1-c1nc(-c2cccc(C)c2)no1 [5-(2-methoxyphenyl)-3-(3-methylphenyl)-1,2,4-oxadiazole]",1.34
8,"COc1ccccc1-c1cc(C(=O)Nc2ccccc2SC)no1 [5-(2-methoxyphenyl)-N-(2-methylsulfanylphenyl)-1,2-oxazole-3-carboxamide]",6.26
9,"CCOc1ccc(-c2nc(-c3ccc(OC)cc3)no2)cc1OCC [5-(3,4-Diethoxy-phenyl)-3-(4-methoxy-phenyl)-[1,2,4]oxadiazole]",0.568
10,"CCOc1ccc(-c2nc(-c3ccccc3)no2)cc1OCC [5-(3,4-diethoxyphenyl)-3-phenyl-1,2,4-oxadiazole]",0.147
11,"COc1ccc(-c2nc(-c3ccccc3OC)no2)cc1OC [5-(3,4-dimethoxyphenyl)-3-(2-methoxyphenyl)-1,2,4-oxadiazole]",0.166
12,"COc1ccc(-c2nc(-c3cccc(C)c3)no2)cc1OC [5-(3,4-dimethoxyphenyl)-3-(3-methylphenyl)-1,2,4-oxadiazole]",1.48
13,"COc1ccc(-c2nc(-c3ccncc3)no2)cc1OC [5-(3,4-dimethoxyphenyl)-3-(4-pyridyl)-1,2,4-oxadiazole]",1.85
14,"COc1ccccc1OCc1nc(C#N)c(N2CC(C)CC(C)C2)o1 (configuration not stated) [5-(3,5-dimethyl-1-piperidinyl)-2-[(2-methoxyphenoxy)methyl]-4-oxazolecarbonitrile]",4.02
15,"Cc1cc(C)cc(-c2nc(-c3ccncc3)no2)c1 [5-(3,5-dimethylphenyl)-3-(4-pyridyl)-1,2,4-oxadiazole]",2.05
16,"CCOc1ccc(C2CC(c3cccc(OC)c3OC)n3nnnc3N2)cc1Cl (configuration not stated) [5-(3-chloranyl-4-ethoxy-phenyl)-7-(2,3-dimethoxyphenyl)-1,5,6,7-tetrahydro-[1,2,3,4]tetrazolo[1,5-a]pyrimidine]",> 95
17,CC(C)N1C(=O)CCC1C(=O)N1CCC(Cc2ccccc2)CC1 (configuration not stated) [5-(4-benzylpiperidine-1-carbonyl)-1-isopropyl-2-pyrrolidone],> 95
18,COc1ccccc1-n1nnnc1S(=O)(=O)Cc1ccc(Cl)cc1 [5-(4-chlorobenzyl)sulfonyl-1-(2-methoxyphenyl)tetrazole],3.61
19,"CCc1ccc(-c2nc(-c3ccncc3)no2)cc1 [5-(4-ethylphenyl)-3-(4-pyridyl)-1,2,4-oxadiazole]",5.7

row,SMILES,EC50 [µM]
1,O=C(Nc1ccccc1C(F)(F)F)c1cc(-c2ccc(O)cc2)on1 [5-(4-hydroxyphenyl)-N-[2-(trifluoromethyl)phenyl]isoxazole-3-carboxamide],0.964
2,"c1ccc(-c2ccc(-c3nc(-c4cccnc4)no3)cc2)cc1 [5-(4-phenylphenyl)-3-(3-pyridinyl)-1,2,4-oxadiazole]",2.35
3,"O=C(Nc1nc2c(s1)CCCC2)c1cc2n(n1)C(C(F)(F)F)CC(C1CC1)N2 (configuration not stated) [5-Cyclopropyl-7-trifluoromethyl-4,5,6,7-tetrahydro-pyrazolo[1,5-a]pyrimidine-2-carboxylic acid (4,5,6,7-tetrahydro-benzothiazol-2-yl)-amide]",0.996
4,"CC(C)c1cc(C(F)(F)F)n2nc(C(=O)Nc3ccc4c(c3)OCO4)cc2n1 [5-Isopropyl-7-trifluoromethyl-pyrazolo[1,5-a]pyrimidine-2-carboxylic acid benzo[1,3]dioxol-5-ylamide]",2.6
5,"Cc1cc(N2CCN(C/C=C/c3ccccc3)CC2)n2ncnc2n1 [5-Methyl-7-[4-((E)-3-phenyl-allyl)-piperazin-1-yl]-[1,2,4]triazolo[1,5-a]pyrimidine]",> 30
6,"CCC(NCCOc1ccc(Cl)cc1)=C1C(=O)N(C)C(=O)N(C)C1=O [5-[1-[2-(4-chlorophenoxy)ethylamino]propylidene]-1,3-dimethyl-1,3-diazinane-2,4,6-trione]",5.04
7,"Cc1ccc(OCc2nc(-c3ccccc3)no2)c(C)c1 [5-[(2,4-dimethylphenoxy)methyl]-3-phenyl-1,2,4-oxadiazole]",2.66
8,"Clc1ccc(OCc2nc(-c3ccncc3)no2)c(Br)c1 [5-[(2-bromanyl-4-chloranyl-phenoxy)methyl]-3-pyridin-4-yl-1,2,4-oxadiazole]",3.86
9,"CC(C)c1ccc(OCc2nc(-c3ccccn3)no2)c(Br)c1 [5-[(2-bromanyl-4-propan-2-yl-phenoxy)methyl]-3-pyridin-2-yl-1,2,4-oxadiazole]",4.45
10,COC(=O)c1cc(NCc2ccccc2F)ccc1N1CCOCC1 [5-[(2-fluorobenzyl)amino]-2-morpholino-benzoic acid methyl ester],8.9
11,"COc1ccccc1-n1nnnc1SCc1cc2c(cc1Br)OCO2 [5-[(6-bromanyl-1,3-benzodioxol-5-yl)methylsulfanyl]-1-(2-methoxyphenyl)-1,2,3,4-tetrazole]",> 10
12,"COC(=O)c1cc(CSc2nnc(-c3ccccc3)c(-c3ccccc3)n2)oc1C [5-[[(5,6-diphenyl-1,2,4-triazin-3-yl)thio]methyl]-2-methyl-3-furancarboxylic acid methyl ester]",1.73
13,O=C(Nc1ccc(N2CCCC2)c(Cl)c1)c1ccc(Br)o1 [5-bromanyl-N-(3-chloranyl-4-pyrrolidin-1-yl-phenyl)furan-2-carboxamide],4.15
14,O=S(=O)(NCc1ccncc1)c1ccc(Br)s1 [5-bromanyl-N-(pyridin-4-ylmethyl)thiophene-2-sulfonamide],2.63
15,"CCc1ccc(S(=O)(=O)NCCc2csc(-c3ccccc3)n2)s1 [5-ethyl-N-[2-(2-phenyl-1,3-thiazol-4-yl)ethyl]thiophene-2-sulfonamide]",8.69
16,COC(=O)c1c(C)n(-c2ccc(OC)cc2)c2ccc(O)cc12 [5-hydroxy-1-(4-methoxyphenyl)-2-methyl-3-indolecarboxylic acid methyl ester],6.29
17,Cc1ccc(S(=O)(=O)Nc2cccc3ncccc23)s1 [5-methyl-N-quinolin-5-ylthiophene-2-sulfonamide],9.62
18,Cn1nc(C(C)(C)C)cc1C(=O)NCc1ccc(N2CCCC2=O)cc1 [5-tert-Butyl-2-methyl-2H-pyrazole-3-carboxylic acid 4-(2-oxo-pyrrolidin-1-yl)-benzylamide],3.86

# Same assay, conditions: inactive by the depositor's call
row,SMILES,EC50 [µM]
1,CCN(CC)S(=O)(=O)c1cc(C(=O)Nc2ccncc2)ccc1Cl [4-chloranyl-3-(diethylsulfamoyl)-N-pyridin-4-yl-benzamide],52.3
2,Cc1cc(N2CCOCC2)nc(NCc2ccccc2)n1 [4-methyl-6-(4-morpholinyl)-N-(phenylmethyl)-2-pyrimidinamine],13.2
3,"Cc1nc2ncnn2c(N2CCN(c3cccc(C(F)(F)F)c3)CC2)c1C [5,6-Dimethyl-7-[4-(3-trifluoromethyl-phenyl)-piperazin-1-yl]-[1,2,4]triazolo[1,5-a]pyrimidine]",14.1
4,COc1ccccc1-c1cc(C(=O)Nc2cc(C)nn2-c2ccccc2)no1 [5-(2-methoxyphenyl)-N-(3-methyl-1-phenyl-1H-pyrazol-5-yl)isoxazole-3-carboxamide],47
5,"COc1ccc(-c2nc(-c3cccc(C(F)(F)F)c3)no2)cc1OC [5-(3,4-dimethoxyphenyl)-3-[3-(trifluoromethyl)phenyl]-1,2,4-oxadiazole]",22.3
6,"COc1cccc(-c2cc(C(=O)Nc3ccccc3SC)no2)c1 [5-(3-methoxyphenyl)-N-(2-methylsulfanylphenyl)-1,2-oxazole-3-carboxamide]",18
7,"c1ccc(-c2ccc(-c3nc(-c4ccncc4)no3)cc2)cc1 [5-(4-phenylphenyl)-3-(4-pyridyl)-1,2,4-oxadiazole]",10.4
8,"Cc1cccc(-c2nc(C#N)c(NC3CCCCC3)o2)c1 [5-(cyclohexylamino)-2-(3-methylphenyl)-1,3-oxazole-4-carbonitrile]",13.4
9,"FC(F)(F)c1ccc(N2CCN(c3cc(-c4ccccc4)nc4ncnn34)CC2)nc1 [5-Phenyl-7-[4-(5-trifluoromethyl-pyridin-2-yl)-piperazin-1-yl]-[1,2,4]triazolo[1,5-a]pyrimidine]",31.9
10,CCOC(=O)c1oc2ccc(S(=O)(=O)n3nc(-c4ccc(OC)cc4)cc3N)cc2c1C [5-[5-amino-3-(4-methoxyphenyl)pyrazol-1-yl]sulfonyl-3-methyl-coumarilic acid ethyl ester],30.4
11,"Oc1c(C(c2ccco2)N2CCN(C(c3ccccc3)c3ccccc3)CC2)sc2ncnn12 (configuration not stated) [5-[(4-benzhydrylpiperazin-1-yl)-(furan-2-yl)methyl]-[1,3]thiazolo[3,2-b][1,2,4]triazol-6-ol]",15.9
12,COC(=O)c1ccc(CSc2nc3ccccc3c(=O)n2Cc2ccco2)o1 [5-[[[3-(2-furanylmethyl)-4-oxo-2-quinazolinyl]thio]methyl]-2-furancarboxylic acid methyl ester],18.8
13,"Cc1nn(Cc2ccc(Cl)c(Cl)c2)c(C)c1NC(=O)c1cc(C2CC2)on1 [5-cyclopropyl-N-[1-(3,4-dichlorobenzyl)-3,5-dimethyl-pyrazol-4-yl]isoxazole-3-carboxamide]",10.6
14,"O=C(Nc1ccc(Oc2ccccc2)cc1)c1cnc2n(c1=O)CCS2 [5-keto-N-(4-phenoxyphenyl)-2,3-dihydrothiazolo[3,2-a]pyrimidine-6-carboxamide]",16.6
15,"Cc1ccc(C(=O)Nc2nc(COc3ccccc3)cs2)s1 [5-methyl-N-[4-(phenoxymethyl)-1,3-thiazol-2-yl]thiophene-2-carboxamide]",12.1
